From BindingDB's records for doi:10.1038/sj.bjp.0702059 (Smithkline Beecham Pharmaceuticals, 1998)

Legend:
[1] = target: T1, 5-hydroxytryptamine receptor 1F (Homo sapiens, UniProt P30939)
T1 sequence (P30939 whole entry): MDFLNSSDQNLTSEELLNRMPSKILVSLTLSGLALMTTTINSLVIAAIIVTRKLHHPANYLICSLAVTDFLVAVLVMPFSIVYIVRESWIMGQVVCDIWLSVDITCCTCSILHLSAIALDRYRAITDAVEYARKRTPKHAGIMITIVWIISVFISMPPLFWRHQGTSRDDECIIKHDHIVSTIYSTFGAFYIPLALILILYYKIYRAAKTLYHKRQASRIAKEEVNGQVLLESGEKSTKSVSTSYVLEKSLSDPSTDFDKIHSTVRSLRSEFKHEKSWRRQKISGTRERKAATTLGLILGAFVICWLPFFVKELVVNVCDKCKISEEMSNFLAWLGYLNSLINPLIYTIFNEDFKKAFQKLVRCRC

[2] = target: 5-hydroxytryptamine receptor 4 (Homo sapiens, UniProt Q13639)
[3] = target: 5-hydroxytryptamine receptor 7 (Homo sapiens, UniProt P34969)
[4] = target: 5-hydroxytryptamine receptor 2A (Homo sapiens, UniProt P28223)
[5] = target: 5-hydroxytryptamine receptor 6 (Homo sapiens, UniProt P50406)
[6] = target: 5-hydroxytryptamine receptor 1E (Homo sapiens, UniProt P28566)
[7] = target: 5-hydroxytryptamine receptor 2B (Homo sapiens, UniProt P41595)
[8] = target: 5-hydroxytryptamine receptor 1B (Homo sapiens, UniProt P28222)
5-hydroxytryptamine receptor 1B, sequence (P28222 whole entry): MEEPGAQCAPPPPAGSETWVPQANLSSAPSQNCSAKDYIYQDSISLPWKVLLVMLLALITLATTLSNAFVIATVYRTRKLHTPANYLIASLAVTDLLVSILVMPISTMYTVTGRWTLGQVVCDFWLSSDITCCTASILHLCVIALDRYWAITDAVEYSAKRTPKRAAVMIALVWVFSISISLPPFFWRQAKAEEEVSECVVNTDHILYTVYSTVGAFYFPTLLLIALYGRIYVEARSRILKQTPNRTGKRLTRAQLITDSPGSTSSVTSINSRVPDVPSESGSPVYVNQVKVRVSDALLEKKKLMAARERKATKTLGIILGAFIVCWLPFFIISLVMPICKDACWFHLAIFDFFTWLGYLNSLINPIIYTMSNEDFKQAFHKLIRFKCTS

5-hydroxytryptamine receptor 4, sequence (Q13639 whole entry): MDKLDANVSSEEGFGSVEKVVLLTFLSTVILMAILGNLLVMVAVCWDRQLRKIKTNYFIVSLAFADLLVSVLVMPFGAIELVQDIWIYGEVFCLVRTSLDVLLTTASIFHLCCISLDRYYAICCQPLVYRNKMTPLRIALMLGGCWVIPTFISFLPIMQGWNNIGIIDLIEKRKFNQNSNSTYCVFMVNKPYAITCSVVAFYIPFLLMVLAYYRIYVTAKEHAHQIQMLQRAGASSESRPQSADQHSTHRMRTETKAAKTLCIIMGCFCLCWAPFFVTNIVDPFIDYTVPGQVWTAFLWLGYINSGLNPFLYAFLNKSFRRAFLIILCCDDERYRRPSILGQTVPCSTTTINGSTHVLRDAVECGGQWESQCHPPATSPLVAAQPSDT
5-hydroxytryptamine receptor 1E, sequence (P28566 whole entry): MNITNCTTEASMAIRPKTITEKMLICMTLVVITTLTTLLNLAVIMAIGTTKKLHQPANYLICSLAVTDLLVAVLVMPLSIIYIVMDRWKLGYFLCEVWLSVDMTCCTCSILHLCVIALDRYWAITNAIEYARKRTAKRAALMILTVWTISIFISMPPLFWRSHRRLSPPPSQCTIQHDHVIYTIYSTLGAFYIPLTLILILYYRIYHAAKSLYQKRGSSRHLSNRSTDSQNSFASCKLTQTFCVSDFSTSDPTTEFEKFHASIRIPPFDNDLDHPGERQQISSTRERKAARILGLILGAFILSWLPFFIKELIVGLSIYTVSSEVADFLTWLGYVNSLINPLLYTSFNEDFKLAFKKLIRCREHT
5-hydroxytryptamine receptor 2B, sequence (P41595 whole entry): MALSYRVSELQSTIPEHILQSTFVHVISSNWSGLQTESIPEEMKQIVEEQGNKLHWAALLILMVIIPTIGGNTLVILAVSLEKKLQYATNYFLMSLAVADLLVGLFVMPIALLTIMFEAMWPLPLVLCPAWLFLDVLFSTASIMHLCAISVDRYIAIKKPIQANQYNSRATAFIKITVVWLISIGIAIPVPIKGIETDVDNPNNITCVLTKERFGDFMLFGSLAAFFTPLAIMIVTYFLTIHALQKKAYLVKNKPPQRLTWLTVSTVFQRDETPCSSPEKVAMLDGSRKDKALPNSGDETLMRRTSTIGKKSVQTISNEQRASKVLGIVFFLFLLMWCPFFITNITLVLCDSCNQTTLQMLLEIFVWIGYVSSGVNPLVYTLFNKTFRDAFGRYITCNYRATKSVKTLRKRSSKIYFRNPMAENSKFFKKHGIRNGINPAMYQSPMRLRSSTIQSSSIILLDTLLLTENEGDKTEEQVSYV
5-hydroxytryptamine receptor 7, sequence (P34969 whole entry): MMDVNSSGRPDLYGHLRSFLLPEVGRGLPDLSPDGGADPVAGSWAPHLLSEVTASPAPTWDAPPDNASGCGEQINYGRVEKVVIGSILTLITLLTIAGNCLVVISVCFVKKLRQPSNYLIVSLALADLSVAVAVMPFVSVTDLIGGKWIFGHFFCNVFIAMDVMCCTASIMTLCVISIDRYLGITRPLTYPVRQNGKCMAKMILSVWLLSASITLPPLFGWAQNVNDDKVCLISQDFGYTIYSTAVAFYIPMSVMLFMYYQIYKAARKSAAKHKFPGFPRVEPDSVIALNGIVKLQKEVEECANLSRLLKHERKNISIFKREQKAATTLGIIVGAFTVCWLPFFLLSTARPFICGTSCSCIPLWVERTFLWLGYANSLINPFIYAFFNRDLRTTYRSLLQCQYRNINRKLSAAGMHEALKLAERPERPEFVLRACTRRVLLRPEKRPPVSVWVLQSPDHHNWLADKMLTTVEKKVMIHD
5-hydroxytryptamine receptor 2A, sequence (P28223 whole entry): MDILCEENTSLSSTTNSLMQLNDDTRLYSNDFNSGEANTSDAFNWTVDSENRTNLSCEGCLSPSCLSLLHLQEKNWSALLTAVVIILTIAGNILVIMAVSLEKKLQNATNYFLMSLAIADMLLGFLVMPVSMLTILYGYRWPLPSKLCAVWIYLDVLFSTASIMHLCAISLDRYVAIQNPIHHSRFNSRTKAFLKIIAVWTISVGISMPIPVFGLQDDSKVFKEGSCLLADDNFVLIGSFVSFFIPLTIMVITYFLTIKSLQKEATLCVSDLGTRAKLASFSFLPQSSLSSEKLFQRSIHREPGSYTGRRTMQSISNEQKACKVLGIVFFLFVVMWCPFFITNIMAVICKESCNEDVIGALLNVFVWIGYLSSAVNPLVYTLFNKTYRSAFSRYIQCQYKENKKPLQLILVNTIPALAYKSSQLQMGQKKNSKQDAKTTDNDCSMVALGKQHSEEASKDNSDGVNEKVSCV
5-hydroxytryptamine receptor 6, sequence (P50406 whole entry): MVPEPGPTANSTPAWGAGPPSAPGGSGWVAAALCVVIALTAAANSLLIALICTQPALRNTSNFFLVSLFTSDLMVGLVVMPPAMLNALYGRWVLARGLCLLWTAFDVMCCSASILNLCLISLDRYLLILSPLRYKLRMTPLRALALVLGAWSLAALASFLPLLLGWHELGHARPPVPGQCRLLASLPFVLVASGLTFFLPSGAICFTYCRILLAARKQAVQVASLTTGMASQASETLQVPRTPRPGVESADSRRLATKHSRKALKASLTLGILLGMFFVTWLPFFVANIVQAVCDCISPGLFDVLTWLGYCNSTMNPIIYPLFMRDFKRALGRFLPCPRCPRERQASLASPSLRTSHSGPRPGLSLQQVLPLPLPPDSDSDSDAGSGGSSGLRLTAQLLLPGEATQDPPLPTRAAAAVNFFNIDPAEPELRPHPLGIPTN

| Ki [8] | SMILES | Ki [1] | Ki [2] | Ki [3] | Ki [4] | Ki [5] | Ki [6] | Ki [7] |
| --- | --- | --- | --- | --- | --- | --- | --- | --- |
|  | Cc1nc(-c2ccc(-c3ccc(C(=O)N4CCc5cc6c(cc54)C4(CCN(C)CC4)CO6)cc3)c(C)c2)no1 [4-[2-methyl-4-(5-methyl-1,2,4-oxadiazol-3-yl)phenyl]phenyl-1'-methylspiro[3,5,6,7-tetrahydro-2H-furo[2,3-f]indole-3,4'-(hexahydropyridine)]-5-ylmethanone] | > 10000 nM | 2040 nM | 1000 nM | 1200 nM | 2140 nM | > 10000 nM | 3160 nM |
| 0.93 nM | COc1ccc(NC(=O)c2ccc(-c3ccc(-c4noc(C)n4)cc3C)cc2)cc1N1CCN(C)CC1 [SMR001230745] |  |  |  |  |  |  |  |
